Experimental data reported in patent US7662832B2, “Pyrrolo[2,3-c]pyridine derivatives and processes for the preparation thereof” (priority 2004, dated 2010).
Where a name gives a salt, the structure may show the parent alone.

Biological target: Proton Pump (H^+/K^+-ATPase) (Sus scrofa, UniProt P19156)
Assay: Inhibitory effects on proton pump (H^+/K^+-ATPase) activity
Format: biochemical
Conditions: hog gastric vesicles; K^+ stimulated H^+/K^+-ATPase activity; 30 minutes at 37° C.

Sequence of Proton Pump (H^+/K^+-ATPase) (P19156 2-1034 limits assumed): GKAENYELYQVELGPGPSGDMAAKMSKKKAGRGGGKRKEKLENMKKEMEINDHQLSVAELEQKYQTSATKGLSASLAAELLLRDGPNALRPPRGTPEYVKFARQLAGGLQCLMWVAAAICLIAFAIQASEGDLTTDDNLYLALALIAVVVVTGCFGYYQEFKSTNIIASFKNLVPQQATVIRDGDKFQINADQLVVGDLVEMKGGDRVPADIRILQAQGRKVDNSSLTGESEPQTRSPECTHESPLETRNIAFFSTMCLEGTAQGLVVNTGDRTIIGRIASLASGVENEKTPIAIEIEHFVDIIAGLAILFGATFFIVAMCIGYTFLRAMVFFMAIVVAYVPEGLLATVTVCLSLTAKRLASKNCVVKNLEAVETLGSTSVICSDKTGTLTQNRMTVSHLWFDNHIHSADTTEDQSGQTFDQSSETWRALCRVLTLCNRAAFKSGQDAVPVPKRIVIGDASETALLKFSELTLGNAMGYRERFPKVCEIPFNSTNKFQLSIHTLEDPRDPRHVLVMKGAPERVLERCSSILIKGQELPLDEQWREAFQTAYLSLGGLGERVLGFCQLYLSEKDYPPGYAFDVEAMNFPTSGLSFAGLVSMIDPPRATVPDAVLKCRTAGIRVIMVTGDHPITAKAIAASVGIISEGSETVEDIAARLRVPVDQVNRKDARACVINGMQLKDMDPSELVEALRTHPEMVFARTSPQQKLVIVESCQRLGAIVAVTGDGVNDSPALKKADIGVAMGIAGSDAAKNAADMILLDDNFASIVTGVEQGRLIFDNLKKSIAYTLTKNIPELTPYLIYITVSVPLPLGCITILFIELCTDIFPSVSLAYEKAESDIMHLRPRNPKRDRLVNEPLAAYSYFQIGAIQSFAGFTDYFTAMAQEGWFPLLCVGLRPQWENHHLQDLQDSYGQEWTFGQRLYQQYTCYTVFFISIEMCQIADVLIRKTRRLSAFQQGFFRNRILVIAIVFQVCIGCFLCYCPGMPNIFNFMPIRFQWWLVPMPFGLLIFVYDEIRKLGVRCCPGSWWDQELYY
Sequence of Proton Pump (H^+/K^+-ATPase) (P18434 whole entry partner): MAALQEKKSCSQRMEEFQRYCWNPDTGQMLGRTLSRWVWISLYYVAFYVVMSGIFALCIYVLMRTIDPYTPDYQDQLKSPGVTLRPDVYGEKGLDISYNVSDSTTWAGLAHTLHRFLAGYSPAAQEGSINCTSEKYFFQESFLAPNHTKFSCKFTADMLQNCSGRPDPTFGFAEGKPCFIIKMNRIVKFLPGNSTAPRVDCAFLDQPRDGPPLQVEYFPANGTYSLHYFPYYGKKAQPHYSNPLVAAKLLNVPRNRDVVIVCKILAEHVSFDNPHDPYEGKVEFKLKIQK

| Compound | IC50 |
| --- | --- |
| COc1cccc(Cn2c(C)c(C)c3ccnc(N4CCc5ccccc5C4)c32)c1 [Example 510, 1-(3-methoxybenzyl)-7-(1,2,3,4-tetrahydroisoquinolin-2-yl)-2,3-dimethyl-1H-pyrrolo[2,3-c]pyridine hydrochloride] | 56 nM |
| Cc1c(C)n(CCc2ccc(S(C)(=O)=O)cc2)c2c(N3CCc4ccccc4C3)nccc12 [Example 512, 1-[2-(4-methylsulfonylphenyl)ethyl]-7-(1,2,3,4-tetrahydroisoquinolin-2-yl)-2,3-dimethyl-1H-pyrrolo[2,3-c]pyridine hydrochloride] | 130 nM |
| Cc1c(C)n(CCC(C)Cl)c2c(N3CCc4ccccc4C3)nccc12 (stereo not shown) [Example 513, 1-(3-chlorobutyl)-7-(1,2,3,4-tetrahydroisoquinolin-2-yl)-2,3-dimethyl-1H-pyrrolo[2,3-c]pyridine hydrochloride] | 74 nM |
| Cc1c(C)n(Cc2ccc(Cl)s2)c2c(N3CCc4ccccc4C3)nccc12 [Example 514, 1-(5-chlorothiophene-2-ylmethyl)-7-(1,2,3,4-tetrahydroisoquinolin-2-yl)-2,3-dimethyl-1H-pyrrolo[2,3-c]pyridine hydrochloride] | 200 nM |
| Cc1cccc(Cn2c(C)c(C)c3ccnc(N4CCc5ccccc5C4)c32)c1 [Example 515, 1-(3-methylbenzyl)-7-(1,2,3,4-tetrahydroisoquinolin-2-yl)-2,3-dimethyl-1H-pyrrolo[2,3-c]pyridine hydrochloride] | 200 nM |
| Cc1c(C)n(Cc2cccnc2)c2c(N3CCc4ccccc4C3)nccc12 [Example 516, 1-(pyridin-3-ylmethyl)-7-(1,2,3,4-tetrahydroisoquinolin-2-yl)-2,3-dimethyl-1H-pyrrolo[2,3-c]pyridine hydrochloride] | 124 nM |
| Cc1c(C)n(Cc2ccccn2)c2c(N3CCc4ccccc4C3)nccc12 [Example 517, 1-(pyridin-2-ylmethyl)-7-(1,2,3,4-tetrahydroisoquinolin-2-yl)-2,3-dimethyl-1H-pyrrolo[2,3-c]pyridine hydrochloride] | 20 nM |
| Cc1c(C)n(Cc2ccncc2)c2c(N3CCc4ccccc4C3)nccc12 [Example 518, 1-(pyridin-4-ylmethyl)-7-(1,2,3,4-tetrahydroisoquinolin-2-yl)-2,3-dimethyl-1H-pyrrolo[2,3-c]pyridine hydrochloride] | 179 nM |
| C=C=Cn1c(C)c(C)c2ccnc(N3CCc4ccccc4C3)c21 [Example 526, 1-(propa-1,2-dienyl)-7-(1,2,3,4-tetrahydroisoquinolin-2-yl)-2,3-dimethyl-1H-pyrrolo[2,3-c]pyridine hydrochloride] | 179 nM |
| C=CCn1c(C)c(C)c2ccnc(N3CCc4ccc(Cl)cc4C3C)c21 (stereo not shown) [Example 531, 7-chloro-2-(1-allyl-2,3-dimethyl-1H-pyrrolo[2,3-c]pyridin-7-yl)-1-methyl-1,2,3,4-tetrahydroisoquinoline hydrochloride] | 190 nM |
| CC(C)=CCn1c(C)c(C)c2ccnc(N3CCc4ccc(Cl)cc4C3C)c21 (stereo not shown) [Example 534, 7-chloro-2-[2,3-dimethyl-1-(3-methylbut-2-enyl)-1H-pyrrolo[2,3-c]pyridin-7-yl]-1-methyl-1,2,3,4-tetrahydroisoquinoline hydrochloride] | 400 nM |
| Cc1nc(Cn2c(C)c(C)c3ccnc(N4CCc5ccc(Cl)cc5C4C)c32)cs1 (stereo not shown) [Example 538, 7-chloro-2-[2,3-dimethyl-1-(2-methylthiazol-4-ylmethyl)-1H-pyrrolo[2,3-c]pyridin-7-yl]-1-methyl-1,2,3,4-tetrahydroisoquinoline hydrochloride] | 244 nM |
| Cc1c(C)n(Cc2cccc(F)c2)c2c(N3CCc4ccc(Cl)cc4C3C)nccc12 (stereo not shown) [Example 539, 7-chloro-2-[1-(3-fluorobenzyl)-2,3-dimethyl-1H-pyrrolo[2,3-c]pyridin-7-yl]-1-methyl-1,2,3,4-tetrahydroisoquinoline hydrochloride] | 250 nM |
| Cc1[nH]c2c(N3CCc4ccc(F)cc4C3C)nccc2c1C (stereo not shown) [Example 541, 7-fluoro-2-(2,3-dimethyl-1H-pyrrolo[2,3-c]pyridin-7-yl)-1-methyl-1,2,3,4-tetrahydroisoquinoline hydrochloride] | 350 nM |
| Cc1c(C)n(Cc2cccc(F)c2)c2c(N3CCc4ccc(F)cc4C3C)nccc12 (stereo not shown) [Example 542, 7-fluoro-2-[1-(3-fluorobenzyl)-2,3-dimethyl-1H-pyrrolo[2,3-c]pyridin-7-yl]-1-methyl-1,2,3,4-tetrahydroisoquinoline hydrochloride] | 150 nM |
| CCn1c(C)c(C)c2ccnc(N3CCc4ccc(F)cc4C3C)c21 (stereo not shown) [Example 543, 2-(1-ethyl-2,3-dimethyl-1H-pyrrolo[2,3-c]pyridin-7-yl)-7-fluoro-1-methyl-1,2,3,4-tetrahydroisoquinoline hydrochloride] | 110 nM |
| C=CCn1c(C)c(C)c2ccnc(N3CCc4ccc(F)cc4C3C)c21 (stereo not shown) [Example 544, 2-(1-allyl-2,3-dimethyl-1H-pyrrolo[2,3-c]pyridin-7-yl)-7-fluoro-1-methyl-1,2,3,4-tetrahydroisoquinoline hydrochloride] | 22 nM |

| Compound | IC50 |
| --- | --- |
| CC(C)=CCn1c(C)c(C)c2ccnc(N3CCc4ccc(F)cc4C3C)c21 (stereo not shown) [Example 545, 2-[2,3-dimethyl-1-(3-methylbut-2-enyl)-1H-pyrrolo[2,3-c]pyridin-7-yl]-7-fluoro-1-methyl-1,2,3,4-tetrahydroisoquinoline hydrochloride] | 190 nM |
| COCCn1c(C)c(C)c2ccnc(N3CCc4ccc(F)cc4C3C)c21 (stereo not shown) [Example 546, 7-fluoro-2-[1-(2-methoxyethyl)-2,3-dimethyl-1H-pyrrolo[2,3-c]pyridin-7-yl]-1-methyl-1,2,3,4-tetrahydroisoquinoline hydrochloride] | 250 nM |
| Cc1c(C)n(Cc2ccccc2)c2c(N3CCc4ccc(F)cc4C3C)nccc12 (stereo not shown) [Example 547, 2-(1-benzyl-2,3-dimethyl-1H-pyrrolo[2,3-c]pyridin-7-yl)-7-fluoro-1-methyl-1,2,3,4-tetrahydroisoquinoline hydrochloride] | 130 nM |
| Cc1ccc(Cn2c(C)c(C)c3ccnc(N4CCc5ccc(F)cc5C4C)c32)cc1 (stereo not shown) [Example 548, 2-[2,3-dimethyl-1-(4-methylbenzyl)-1H-pyrrolo[2,3-c]pyridin-7-yl]-7-fluoro-1-methyl-1,2,3,4-tetrahydroisoquinoline hydrochloride] | 410 nM |
| Cc1nc(Cn2c(C)c(C)c3ccnc(N4CCc5ccc(F)cc5C4C)c32)cs1 (stereo not shown) [Example 551, 2-[2,3-dimethyl-1-(2-methylthiazol-4-ylmethyl)-1H-pyrrolo[2,3-c]pyridin-7-yl]-7-fluoro-1-methyl-1,2,3,4-tetrahydroisoquinoline hydrochloride] | 320 nM |
| Cc1[nH]c2c(N3CCc4ccccc4C3C)nccc2c1C (stereo not shown) [Example 552, 2-(2,3-dimethyl-1H-pyrrolo[2,3-c]pyridin-7-yl)-1-methyl-1,2,3,4-tetrahydroisoquinoline hydrochloride] | 36 nM |
| CCn1c(C)c(C)c2ccnc(N3CCc4ccccc4C3C)c21 (stereo not shown) [Example 554, 2-(1-ethyl-2,3-dimethyl-1H-pyrrolo[2,3-c]pyridin-7-yl)-1-methyl-1,2,3,4-tetrahydroisoquinoline hydrochloride] | 59 nM |
| COCCn1c(C)c(C)c2ccnc(N3CCc4ccccc4C3C)c21 (stereo not shown) [Example 555, 2-[1-(2-methoxyethyl)-2,3-dimethyl-1H-pyrrolo[2,3-c]pyridin-7-yl]-1-methyl-1,2,3,4-tetrahydroisoquinoline hydrochloride] | 230 nM |
| Cc1c(C)n(Cc2ccccc2)c2c(N3CCc4ccccc4C3C)nccc12 (stereo not shown) [Example 556, 2-(1-benzyl-2,3-dimethyl-1H-pyrrolo[2,3-c]pyridin-7-yl)-1-methyl-1,2,3,4-tetrahydroisoquinoline hydrochloride] | 130 nM |
| COc1ccc(Cn2c(C)c(C)c3ccnc(N4CCc5ccccc5C4C)c32)cc1 (stereo not shown) [Example 558, 2-[1-(4-methoxybenzyl)-2,3-dimethyl-1H-pyrrolo[2,3-c]pyridin-7-yl]-1-methyl-1,2,3,4-tetrahydroisoquinoline hydrochloride] | 430 nM |
| Cc1nc(Cn2c(C)c(C)c3ccnc(N4CCc5ccccc5C4C)c32)cs1 (stereo not shown) [Example 559, 2-[2,3-dimethyl-1-(2-methylthiazol-4-ylmethyl)-1H-pyrrolo[2,3-c]pyridin-7-yl]-1-methyl-1,2,3,4-tetrahydroisoquinoline hydrochloride] | 159 nM |
| Cc1[nH]c2c(N3CCc4ccccc4C3C)nccc2c1C (stereo not shown) [Example 560, 2-(2,3-dimethyl-1H-pyrrolo[2,3-c]pyridin-7-yl)-1-methyl-1,2,3,4-tetrahydroisoquinoline sodium] | 17 nM |
| Cc1[nH]c2c(N3CCc4cc(F)ccc4C3C)nccc2c1C (stereo not shown) [Example 561, 6-fluoro-2-(2,3-dimethyl-1H-pyrrolo[2,3-c]pyridin-7-yl)-1-methyl-1,2,3,4-tetrahydroisoquinoline hydrochloride] | 65 nM |
| CCn1c(C)c(C)c2ccnc(N3CCc4cc(F)ccc4C3C)c21 (stereo not shown) [Example 562, 2-(1-ethyl-2,3-dimethyl-1H-pyrrolo[2,3-c]pyridin-7-yl)-6-fluoro-1-methyl-1,2,3,4-tetrahydroisoquinoline hydrochloride] | 58 nM |
| COCCn1c(C)c(C)c2ccnc(N3CCc4cc(F)ccc4C3C)c21 (stereo not shown) [Example 564, 6-fluoro-2-[1-(2-methoxyethyl)-2,3-dimethyl-1H-pyrrolo[2,3-c]pyridin-7-yl]-1-methyl-1,2,3,4-tetrahydroisoquinoline hydrochloride] | 82 nM |
| Cc1c(C)n(Cc2cccc(F)c2)c2c(N3CCc4cc(F)ccc4C3C)nccc12 (stereo not shown) [Example 565, 6-fluoro-2-[1-(3-fluorobenzyl)-2,3-dimethyl-1H-pyrrolo[2,3-c]pyridin-7-yl]-1-methyl-1,2,3,4-tetrahydroisoquinoline hydrochloride] | 330 nM |
| COc1ccc(Cn2c(C)c(C)c3ccnc(N4CCc5cc(F)ccc5C4C)c32)cc1 (stereo not shown) [Example 566, 6-fluoro-2-[1-(4-methoxybenzyl)-2,3-dimethyl-1H-pyrrolo[2,3-c]pyridin-7-yl]-1-methyl-1,2,3,4-tetrahydroisoquinoline hydrochloride] | 300 nM |
